Results taken from PubChem BioAssay (NCI).
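Tested at 5 concentrations; 48 h exposure; 96-well plates; endpoints linearly interpolated, else capped at highest concentration. Abbreviation: GI50, concentration required for 50% inhibition of growth. TGI is the concentration that stops growth completely.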

Tests used:
Assay in all cases: NCI anticancer screen, dose series, 48 h
[1] = tested on: NCI/ADR-RES ovarian
[2] = tested on: COLO 205 colon
[3] = tested on: NCI-H522 lung
[4] = tested on: KM12 colon
[5] = tested on: MDA-MB-435
[6] = tested on: RPMI-8226 leukemia
[7] = tested on: LOX IMVI melanoma
[8] = tested on: NCI-H226 lung
[9] = tested on: CCRF-CEM leukemia
[10] = tested on: 786-0 renal
[11] = tested on: M14 melanoma
[12] = tested on: HL-60(TB) leukemia
[13] = tested on: SK-MEL-28 melanoma
[14] = tested on: CAKI-1 renal
[15] = tested on: HCT-116 colon
[16] = tested on: SF-268 CNS
[17] = tested on: OVCAR-3 ovarian
[18] = tested on: OVCAR-4 ovarian
[19] = tested on: SK-MEL-5 melanoma
[20] = tested on: PC-3 prostate
[21] = tested on: SK-OV-3 ovarian
[22] = tested on: UACC-257 melanoma
[23] = tested on: NCI-H460 lung
[24] = tested on: HOP-92 NSCLC
[25] = tested on: HS 578T breast
[26] = tested on: RXF 393 renal
[27] = tested on: SNB-75 CNS
[28] = tested on: IGROV1 ovarian
[29] = tested on: OVCAR-8 ovarian
[30] = tested on: UACC-62 melanoma
[31] = tested on: SN12C renal
[32] = tested on: SF-295 CNS
[33] = tested on: MCF7 breast
[34] = tested on: UO-31 renal
[35] = tested on: A549 NSCLC
[36] = tested on: NCI-H23 lung
[37] = tested on: U251 CNS
[38] = tested on: MDA-MB-231 breast
[39] = tested on: SW-620 colon
[40] = tested on: SNB-19 CNS
[41] = tested on: HT29 colon
[42] = tested on: TK-10 renal
[43] = tested on: HCT-15 colon
[44] = tested on: K-562 leukemia
[45] = tested on: OVCAR-5 ovarian
[46] = tested on: SK-MEL-2 melanoma
[47] = tested on: ACHN renal
[48] = tested on: A498 renal
[49] = tested on: T-47D breast
[50] = tested on: MALME-3M melanoma
[51] = tested on: MOLT-4 leukemia
[52] = tested on: SF-539 CNS
[53] = tested on: SR leukemia
[54] = tested on: EKVX NSCLC
[55] = tested on: DU-145 prostate

CCOC(CCCNCCCn1c2c(c3cc(OC)c(OC)cc3c1=O)C(=O)c1cc3c(cc1-2)OCO3)OCC
GI50 [1]: 6.5 µM
TGI [1]: 13.7 µM
GI50 [2]: 7.81 µM
TGI [2]: 14.5 µM
GI50 [3]: 5.34 µM
TGI [3]: 11.3 µM
GI50 [4]: 5.93 µM
TGI [4]: 12.1 µM
GI50 [5]: 7.32 µM
TGI [5]: 13.9 µM
GI50 [6]: 308 nM
TGI [6]: 8.45 µM
GI50 [7]: 1730 nM
TGI [7]: 9.81 µM
GI50 [8]: 3.43 µM
TGI [8]: 10.7 µM
GI50 [9]: 759 nM
TGI [9]: 6.24 µM
GI50 [10]: 4.35 µM
TGI [10]: 10.6 µM
GI50 [11]: 5.25 µM
TGI [11]: 11.1 µM
GI50 [12]: 5.25 µM
TGI [12]: 11.1 µM
GI50 [13]: 6.22 µM
TGI [13]: 12.5 µM
GI50 [14]: 1430 nM
TGI [14]: 7.61 µM
GI50 [15]: 2410 nM
TGI [15]: 9.83 µM
GI50 [16]: 2970 nM
TGI [16]: 10.4 µM
GI50 [17]: 7.65 µM
TGI [17]: 14.3 µM
GI50 [18]: 6.69 µM
TGI [18]: 13.1 µM
GI50 [19]: 7.62 µM
TGI [19]: 14.3 µM
GI50 [20]: 5.38 µM
TGI [20]: 11.3 µM
GI50 [21]: 6.47 µM
TGI [21]: 12.8 µM
GI50 [22]: 7.21 µM
TGI [22]: 13.7 µM
GI50 [23]: 884 nM
TGI [23]: 7.3 µM
GI50 [24]: 126 nM
TGI [24]: 8.47 µM
GI50 [25]: 5.76 µM
TGI [25]: 12.7 µM
GI50 [26]: 4.45 µM
TGI [26]: 10.7 µM
GI50 [27]: 443 nM
TGI [27]: 10.3 µM
GI50 [28]: 889 nM
TGI [28]: 9.66 µM
GI50 [29]: 5.27 µM
TGI [29]: 11.2 µM
GI50 [30]: 6.03 µM
TGI [30]: 12.2 µM
GI50 [31]: 5.04 µM
TGI [31]: 10.8 µM
GI50 [32]: 1450 nM
TGI [32]: 8.6 µM
GI50 [33]: 1190 nM
TGI [33]: 9.3 µM
GI50 [34]: 5.82 µM
TGI [34]: 11.9 µM
GI50 [35]: 5.73 µM
TGI [35]: 11.8 µM
GI50 [36]: 5.65 µM
TGI [36]: 11.7 µM
GI50 [37]: 1510 nM
TGI [37]: 9.44 µM
GI50 [38]: 2650 nM
TGI [38]: 10.1 µM
GI50 [39]: 2630 nM
TGI [39]: 10.5 µM
GI50 [40]: 6.13 µM
TGI [40]: 12.3 µM
GI50 [41]: 5.12 µM
TGI [41]: 10.9 µM
GI50 [42]: 6.79 µM
TGI [42]: 13.2 µM
GI50 [43]: 6.1 µM
TGI [43]: 12.3 µM
GI50 [44]: 5.53 µM
TGI [44]: 11.5 µM
GI50 [45]: 10.2 µM
TGI [45]: 17.3 µM
GI50 [46]: 7.59 µM
TGI [46]: 14.2 µM
GI50 [47]: 1280 nM
TGI [47]: 7.66 µM
GI50 [48]: 5.79 µM
TGI [48]: 12.1 µM
GI50 [49]: 7.76 µM
TGI [49]: 14.4 µM
GI50 [50]: 6.77 µM
TGI [50]: 13.6 µM

CCn1ncc2c1nc(-c1ccccc1)c[n+]2[O-]
TGI [1]: > 100 µM
TGI [2]: > 100 µM
TGI [3]: > 100 µM
TGI [4]: > 100 µM
TGI [5]: > 100 µM
TGI [6]: > 100 µM
TGI [9]: > 100 µM
TGI [10]: > 100 µM
TGI [11]: > 100 µM
TGI [13]: > 100 µM
TGI [15]: > 100 µM
TGI [16]: > 100 µM
TGI [17]: > 100 µM
TGI [20]: > 100 µM
TGI [22]: > 100 µM
TGI [23]: > 100 µM
TGI [25]: > 100 µM
TGI [27]: > 100 µM
TGI [51]: > 100 µM
TGI [52]: > 100 µM
TGI [28]: > 100 µM
TGI [53]: > 100 µM
TGI [29]: > 100 µM
TGI [30]: > 100 µM
TGI [31]: > 100 µM
TGI [32]: > 100 µM
TGI [33]: > 100 µM
TGI [34]: > 100 µM
TGI [35]: > 100 µM
TGI [36]: > 100 µM
TGI [54]: > 100 µM
TGI [40]: > 100 µM
TGI [41]: > 100 µM
TGI [43]: > 100 µM
TGI [44]: > 100 µM
TGI [45]: > 100 µM
TGI [46]: > 100 µM
TGI [47]: > 100 µM
TGI [49]: > 100 µM
TGI [55]: > 100 µM
